From paper PMC5778160, “Functional genomics analysis reveals the biosynthesis pathways of important cellular components (alginate and fucoidan) of Saccharina” (Current Genetics, 2017)

Legend:
EsiGMD3 = test system: T1, EsiGMD3; test: enzyme kinetics (GDP-mannose dehydrogenase activity); format: biochemical, Ectocarpus siliculosus; conditions: read-out: NAD / k m; co-substrate GDP-mannose; optimum pH 8.75, 30–37 °C; unit as in table header, probably a misprint for μM; heading: NAD / k m
T1 construct: gene GMD3; synthesized gene, pET32a, E. coli BL21(DE3), His-resin purified
Excerpt: enzyme kinetics (GDP-mannose dehydrogenase activity) on EsiGMD3

EsiGMD2 = test system: T2, EsiGMD2; test: as above; format: biochemical, Ectocarpus siliculosus; conditions: read-out: NAD / k m; co-substrate GDP-mannose; optimum pH 8.75–9, 30–37 °C; unit as in table header, probably a misprint for μM; heading: NAD / k m
T2 construct: gene GMD2; synthesized gene, pET32a, E. coli BL21(DE3), His-resin purified
Excerpt: enzyme kinetics (GDP-mannose dehydrogenase activity) on EsiGMD2

[1] = substrate: O=P(O)(O)O[C@H]1O[C@H](CO)[C@@H](O)[C@H](O)[C@@H]1O; test: enzyme kinetics, double reciprocal plot (phosphomannomutase activity); format: biochemical, Saccharina japonica; conditions: optimum pH 7.4, 25 °C
[2] = substrate: O=P(O)(O)O[C@H]1O[C@H](CO)[C@@H](O)[C@H](O)[C@H]1O; test: enzyme kinetics, double reciprocal plot (phosphoglucomutase activity); format: biochemical, Saccharina japonica; conditions: optimum pH 7.0, 30 °C

Molecule	Km (EsiGMD3)	Km (EsiGMD2)	Km [1]	Km [2]
NC(=O)c1ccc[n+]([C@@H]2O[C@H](COP(=O)(O)OP(=O)(O)OC[C@H]3O[C@@H](n4cnc5c(N)ncnc54)[C@H](O)[C@@H]3O)[C@@H](O)[C@H]2O)c1 [NAD]	43.5 µM	79.6 µM		
SjaPMM (Saccharina japonica) (protein, synthesized gene, pET32a, E. coli BL21(DE3), His-resin purified) MSVTKNPRIIALFDVDGTLTAARKEVLPDMVEFIKTLRERITIGVVGGSDLPKQKEQLGESVMEDYDYSFSQNGLVAYKAGELIGQQTISKHVGEENLKKIINWVLKYMSGIDIPVKRGTFIEFRTGMLNISPVGRNCSQEERDAFEQYDNVHKIRETMVAAMREEFADLNLTFSIGGQISFDLFPTGWDKTFCLQFLGEGTAEYDEIHFFGDKTFKGGNDNEIFESERTIGHTVTSPADTIQQCKELFFKD			699.41 µM	41.04 µM
